Measurements: publication PMC8708491 (Vaccines, 2021)
Blank lines part the entries; values can stand above or below the substance they belong to. Where no end group is shown, it is not given here.

What was measured:
[1] = Polarity by reversed-phase HPLC retention; assay type: physicochemical; conditions: chromatographic, RP-18 (C18) column, gradient 5–100% AcN in 30 min, 0.08% TFA, 214 nm
Experimental: Figure 8 HPLC analysis of peptide (KG)5-MOG35–55 (214 nm) and oxidized mannan–(KG)5-MOG35–55. HPLC analysis of (A) (KG)5-MOG35–55 and (B) oxidized mannan–(KG)5-MOG35–55 solution after 3 years (214 nm) showing the stability of the conjugate. […] The oxidized mannan–(KG)5-MOG35–55 conjugate was very polar, and it appeared at an earlier retention time compared to the less polar (KG)5-MOG35–55 peptide. The HPLC method used: gradient 5–100% AcN in 30 min.

[2] = target: endo-proteinase Glu-C V8 (Staphylococcus aureus, UniProt P0C1U8); conditions: 100 mM Tris-HCl pH 7.8 (carbonate buffer in Figure 6); 0.5 mg/mL; read-out HPLC (fragment MOG37–55 at 13.55 min), MS and UPLC-MS/MS
Experimental: This cleavage experiment aimed to identify fragment MOG37–55 by HPLC analysis. […] In particular, endo-proteinase Glu-C V8, a proteolytic serine, sequencing grade from Staphylococcus aureus V8, (Roche, lot no. 32228800) was used. This enzyme acts at the carboxylic acid of the Glu amino acid. […] The same experiment of enzymatic hydrolysis with a glutamate enzyme was also carried out with oxidized mannan–(KG)5-MOG35–55 conjugate.

[3] = test system: endo-proteinase Glu-C V8, sequencing grade from Staphylococcus aureus V8; test: endo-proteinase Glu-C V8 in 100 mM Tris-HCL, pH 7.8
[4] = test system: patients with secondary progressive MS; conditions: cited from earlier work
Experimental: The study was performed for the first time using a peptide epitope on patients with secondary progressive MS (MAESTRO-01 study).

[5] = test system: adenocarcinoma patients; conditions: cited from earlier work
Description: We have shown that mannan, a poly-mannose carbohydrate isolated from the cell wall of yeast when conjugated to cancer proteins, induces Th1 or Th2 immune responses depending on the mode of conjugation and has therapeutic benefits against cancer when conjugated to peptides, proteins, and DNA. […] In addition, mannan has the added advantage, as it stimulates dendritic cells via Toll-like receptor 4. In MS, mannan conjugated to linear o ...

[6] = old lab batches kept at 5 ± 3 °C since 2014; HPLC (data not shown)
Experimental: We used a Waters 2695 HPLC (Alliance) system using a photodiode array detector. A Lichrosorb RP-18 reversed-phase analytical column (C18 […], 4.6 × 50 mm PIN 186003034). […] The reaction of oxidized mannan with a (KG)5-MOG35–55 peptide was monitored by HPLC. […] The samples were kept for 3 years and assessed by HPLC for stability.
The stability of the oxidized mannan–(KG)5-MOG35–55 conjugate was analyzed after 3 years of storage.

[7] = test system: experimental autoimmune encephalomyelitis (EAE); conditions: cited from earlier work
Description: Several biological studies, including in vitro and in vivo assays, have been carried out to evaluate the effects of mannan–myelin peptide conjugates. […] In another study, mannan–MOG35–55 reversed experimental autoimmune encephalomyelitis, inducing a pe ...

[8] = test system: CD4 T cells; conditions: cited from earlier work
Description: The induction of immunological tolerance through the action of dendritic cells is a newly introduced strategy for the treatment of MS. Peripheral blood mononuclear cells (PBMCs) were isolated from patients with relapsing-remitting (RR-MS) and age- and sex-matched healthy individuals (controls).

[9] = another study, wording is the title of ref 20
[10] = compared to EAE controls, 19 (wording matches ref 30)

Substance: (KG)5-MOG35–55: peptide MOG35–55 synthesized with (KG)5 at its N-terminus (MEVGWYRSPFSRVVHLYRNGK; N-terminal (KG)5 linker; UniProt Q61885 63-83, looked up, fragment)
Polarity from HPLC retention time [1]: less polar | Cleavage by endo-proteinase Glu-C [2]: cleavage of the peptide

cleaved bond [3]: Glu36-Val37
Substance: KGKGKGKGKGMEVGWYRPPFSRVVHLYRNGK

Substance: MBP82–98: myelin basic protein epitope peptide clinically tested in phases I, II and III (PADPGSRPHLIRLFSRD; dirucotide; UniProt P02686 82-98, looked up, fragment)
Safety in clinical trials ([4]; phases I, II and III): safe | Efficacy in clinical trial ([4]; secondary progressive MS, MAESTRO-01 study, trial suspended): lack of efficacy

Substance: mannan conjugated to MUC1 protein: mannan conjugated to MUC1 cancer protein, tested in humans
Clinical responses ([5]; adenocarcinoma patients): clinical responses | Cancer recurrence ([5]; in humans): protection against cancer recurrence | Immune responses ([5]; in humans): induces immune responses

Substance: oxidized mannan–(KG)5-MOG35–55: MOG35–55 peptide conjugated to oxidized mannan via the (KG)5 linker at its N-terminus (KGKGKGKGKGMEVGWYRSPFSRVVHLYRNGK; also: conjugated to oxidized mannan via Schiff base on linker lysine side chains; UniProt Q61885 63-83, looked up, fragment)
Stability of the conjugate: fragmentation or detachment [6]: did not show any signs of fragmentation or detachment | Polarity from HPLC retention time [1]: very polar | Development of neurological symptoms and inflammatory demyelinating spinal cord lesions ([7]; EAE models, peptide conjugated to oxidized mannan via (KG)5, earlier study, no reference given): inhibit | Axons in spinal cord lesions [7, 9]: preserved | CNS inflammation [7, 9]: reduced | Effect on experimental autoimmune encephalomyelitis [7, 9]: reversed | Peripheral myeloid response [7, 9]: inducing a peripheral type 2 myeloid response | Antigen-specific T-cell proliferation [7, 10]: reduced | Th1, Th17, and regulatory T-cell differentiation or T-cell apoptosis [7, 10]: no alterations | Protection in EAE ([7]; therapeutic and prophylactic models, 19 (no reference at the sentence; wording matches ref 30)): showed protection | Activation levels of CD4 T cells ([8]; co-cultures with tolerogenic DCs presenting the conjugate, PBMCs from RR-MS patients and healthy controls): Inhibition of activation | T-cell tolerance ([8]; tolerogenic DCs loaded with the conjugate, generated in vitro): induce T-cell tolerance | Cleavage by endo-proteinase Glu-C [2]: cleavage of peptide sequence between amino acids Glu(36) and Val(37)
